In publication PMC12164754, “Phosphoglycerate dehydrogenase is required for kernel development and defines a predominant serine synthesis pathway in maize” (The Plant Cell, 2025):

Columns and labels:
[1] = biological target: DEK20^WT (truncated DEK20, residues 1-387, substrate binding domain and nucleotide-binding domain) (maize (Zea mays)); test: crystal structure; apo form, 3.5 Å; about 16 mg/ml DEK20^WT crystallised in sodium nitrate, sodium phosphate dibasic, ammonium sulfate, HEPES/MOPS pH 7.5, glycerol, PEG 4000; solved by molecular replacement
[2] = biological target: T1, DEK20 (phosphoglycerate dehydrogenase1, PGDH1) (Zea mays, UniProt A0A1D6DW07, S282L); test: microscale thermophoresis (MST); assay type: binding
T1 construct: gene LOC103645840; recombinant His-DEK20

[3] = biological target: T2, DEK20 (phosphoglycerate dehydrogenase1, PGDH1) (Zea mays, UniProt A0A1D6DW07); test: microscale thermophoresis (MST); assay type: binding
T2 construct: gene LOC103645840; recombinant His-DEK20
T2 sequence (A0A1D6DW07 1-387): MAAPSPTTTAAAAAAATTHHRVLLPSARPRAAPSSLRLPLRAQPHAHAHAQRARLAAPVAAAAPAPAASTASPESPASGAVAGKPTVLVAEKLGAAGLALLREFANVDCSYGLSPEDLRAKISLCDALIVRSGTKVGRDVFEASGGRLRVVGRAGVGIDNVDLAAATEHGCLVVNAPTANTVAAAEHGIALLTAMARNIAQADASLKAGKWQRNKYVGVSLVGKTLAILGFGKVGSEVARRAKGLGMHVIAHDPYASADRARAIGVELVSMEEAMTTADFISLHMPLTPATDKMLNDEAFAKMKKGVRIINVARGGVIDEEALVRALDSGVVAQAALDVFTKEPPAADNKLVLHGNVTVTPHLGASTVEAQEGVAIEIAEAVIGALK

T1 sequence (A0A1D6DW07 entry or part of it S282L): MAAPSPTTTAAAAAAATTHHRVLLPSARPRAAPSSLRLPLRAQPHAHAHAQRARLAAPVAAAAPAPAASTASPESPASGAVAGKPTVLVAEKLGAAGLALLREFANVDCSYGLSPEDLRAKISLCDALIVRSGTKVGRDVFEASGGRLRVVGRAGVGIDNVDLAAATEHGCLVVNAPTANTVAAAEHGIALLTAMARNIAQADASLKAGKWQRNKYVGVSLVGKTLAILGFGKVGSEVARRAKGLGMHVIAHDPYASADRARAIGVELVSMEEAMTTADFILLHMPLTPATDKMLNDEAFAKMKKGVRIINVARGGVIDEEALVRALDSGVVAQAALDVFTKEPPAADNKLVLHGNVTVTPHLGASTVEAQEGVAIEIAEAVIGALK

DEK20^WT (truncated DEK20, residues 1-387, substrate binding domain and nucleotide-binding domain) (domain or fragment)
stoichiometry N [1]: 2

NC(=O)c1ccc[n+]([C@@H]2O[C@H](COP(=O)([O-])OP(=O)(O)OC[C@H]3O[C@@H](n4cnc5c(N)ncnc54)[C@H](O)[C@@H]3O)[C@@H](O)[C@H]2O)c1 [NAD^+]
Kd [2]: 8.11 µM
Kd [3]: 32.4 µM
